Data set [1] addresses T1, catalytic domain of human stromelysin (MMP-3) (Homo sapiens, UniProt P08254).
T1 construct: enzymatic activity of the catalytic domain of human stromelysin; made in house
The data set can be described thus: Enzymatic activity of the catalytic domain of human stromelysin (fluorogenic substrate). Type of data set: biochemical. The following applies: inhibitor concentration giving 50% inhibition of the enzyme; pH 6.5 buffer; 15 minutes preincubation; fluorescence 328 nm (ex)/393 nm (em). The procedure:
Preparation and determination of the enzymatic activity of the catalytic domain of human stromelysin
The enzyme stromelysin (MMP-3) was prepared according to Ye et al. (Biochemistry; 31 (1992) pages 11231-11235). For the measurement of the enzyme activity or of the enzyme inhibitor action, 70 μl of buffer solution and 10 μl of enzyme solution were incubated for 15 minutes with 10 μl of a 10% strength (v/v) aqueous dimethyl sulfoxide solution, which optionally contained the enzyme inhibitor. After addition of 10 μl of a 10% strength (v/v) aqueous dimethyl sulfoxide solution which contained I mmol/l of the substrate, the enzyme reaction was monitored by fluorescence spectroscopy (328 nm (ex)/393 nm (em)). The enzyme activity is shown as the extinction increase/minute. The IC50 value was determined as that inhibitor concentration which in each case led to a 50% inhibition of the enzyme.
The buffer solution contained 0.05% Brij (Sigma, Deisenhofen, Germany) and 0.1 mol/l of tris/HCl, 0.1 mol/l of NaCl, 0.01 mol/l of CaCl2 and 0.1 mol/l of piperazine-N,N′-bis[2-ethanesulfonic acid] (pH=6.5).
The enzyme solution contained 5 μg/ml of an enzyme domain prepared according to Ye et al. The substrate solution contained 1 mmol/l of the fluorogenic substrate (7-methoxycoumarin-4-yl)acetyl-Pro-Leu-Gly-Leu-3-(2′,4′-dinitrophenyl)-L-2,3-diaminopropionyl-Ala-Arg-NH2 (Bachem, Heidelberg, Germany).

The nature of data set [2]: Solubility of isolated stromemycin (properties). Type of data set: physicochemical. The following applies: solvents methanol, DMSO. The text has this:
(§1) The stromemycin obtained has the following properties: […]

Data set [3] in a line: Stability of isolated stromemycin in solution (properties). Type of data set: physicochemical. The following applies: neutral medium vs strongly acidic and alkaline solution.
Source text: as §1

Usually IC50 stands for the concentration at which inhibition is half-maximal. Read a low IC50 as higher potency.

T1 sequence (P08254 100-272 limits assumed): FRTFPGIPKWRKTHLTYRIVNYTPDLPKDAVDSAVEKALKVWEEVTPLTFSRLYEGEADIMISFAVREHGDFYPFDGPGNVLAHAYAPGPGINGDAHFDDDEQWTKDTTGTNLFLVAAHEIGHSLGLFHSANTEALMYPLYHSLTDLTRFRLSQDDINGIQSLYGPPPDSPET

`CCCC=CC=CCCc1cc(OC(=O)c2c(CCC=CC=CCCC)cc(O)c(C3OC(CO)C(O)C(O)C3O)c2O)cc(O)c1C(=O)O` (stereo not drawn) [stromemycin] returned an IC50 in data set [1] of 115 µM. In data set [2], the Solubility result was “soluble in methanol, dimethyl sulfoxide (DMSO)”. In addition, the Stability entry in data set [3] was “stable in neutral medium, but unstable in strongly acidic and alkaline solution”.

Values taken from patent US6337411B2, “Stromelysin inhibitors” (Aventis Pharma Deutschland GmbH, priority 1999, dated 2002).
